According to patent US20100286181A1, “PYRROLE DERIVATIVES WITH ANTIBACTERIAL ACTIVITY” (ASTRAZENECA AB, priority 2006, published 2010):

Each compound was assayed against GyrB ATPase activity (E. coli GyrA, E. coli GyrB) (Escherichia coli, UniProt P0AES6) (assay: GyrB ATPase inhibition activity assay (ammonium molybdate/malachite green phosphate detection)). Conditions: figure quoted may be an average of two or more results.
Format: biochemical
Method: Compounds may be tested for inhibition of GyrB ATPase activity using an ammonium molybdate/malachite green-based phosphate detection assay (Lanzetta, P. A., L. J. Alvarez, P. S. Reinach, and O. A. Candia, 1979, 100: 95-97). Assays can be performed in multiwell plates in 100 μl reactions containing: 50 mM HEPES buffer pH 7.5, 75 mM ammonium acetate, 5.5 mM magnesium chloride, 0.5 mM ethylenediaminetetraacetic acid, 5% glycerol, 1 mM 1,4-Dithio-DL-threitol, 200 nM bovine serum albumin, 5 μg/ml sheared salmon sperm DNA, 2.5 nM E. coli GyrA, 2.5 nM E. coli GyrB, 250 μM ATP, and compound in dimethylsulfoxide. Reactions can be quenched with 150 μl of ammonium molybdate/malachite green detection reagent containing 1.2 mM malachite green hydrochloride, 8.5 mM ammonium molybdate tetrahydrate, and 1 M hydrochloric acid.
Compounds of the Examples could be expected to have IC50 values of <200 μg/ml in one or both assays described herein above. For Example the following results were obtained in a GyrB ATPase inhibition activity assay substantially similar to the above wherein the figure quoted may be an average of two or more results

Row | SMILES | IC50 [µM]
1 | CC(=O)c1nc(N2CCC(NC(=O)c3[nH]c(C)c(Cl)c3Cl)C3(C2)OCCCO3)sc1C(=O)O (stereo not drawn) [Example 19, 4-Acetyl-2-(11-{[(3,4-dichloro-5-methyl-1H-pyrrol-2-yl)carbonyl]amino}-1,5-dioxa-8-azaspiro[5.5]undec-8-yl)-1,3-thiazole-5-carboxylic acid] | < 0.00977
2 | CO/N=C1\CN(c2nc(-c3ncc[nH]3)c(C(=O)O)s2)CCC1NC(=O)c1[nH]c(C)c(Cl)c1Cl (stereo not drawn) [Example 29, 2-[(3E)-4-{[(3,4-Dichloro-5-methyl-1H-pyrrol-2-yl)carbonyl]amino}-3-(methoxyimino)piperidin-1-yl]-4-(1H-imidazol-2-yl)-1,3-thiazole-5-carboxylic acid] | < 0.00977
3 | COCC(COC)NC(=O)c1nc(N2CC[C@@H](NC(=O)c3[nH]c(C)c(Cl)c3Cl)[C@@H](n3cc(CO)nn3)C2)sc1C(=O)O [Example 114] | < 0.00977
4 | COC1COC2(CN(c3ncc(C(=O)O)s3)CCC2NC(=O)c2[nH]c(C)c(Cl)c2Cl)OC1 [Example 52, 2-((rel-3R,6r,11R)-11-{[(3,4-Dichloro-5-methyl-1H-pyrrol-2-yl)carbonyl]amino}-3-methoxy-1,5-dioxa-8-azaspiro[5.5]undec-8-yl)-1,3-thiazole-5-carboxylic acid] | < 0.00977
5 | Cc1[nH]c(C(=O)N[C@@H]2CCN(c3nc4cccc(C(=O)O)c4s3)C[C@@H]2n2ccnn2)c(Cl)c1Cl [Example 124, 2-[(3S,4R)-4-{[(3,4-Dichloro-5-methyl-1H-pyrrol-2-yl)carbonyl]amino}-3-(1H-1,2,3-triazol-1-yl)piperidin-1-yl]-1,3-benzothiazole-7-carboxylic acid] | < 0.00977
6 | CCOC(=O)c1sc(N2CCC(NC(=O)c3[nH]c(C)c(Cl)c3Cl)C3(C2)OCCCO3)nc1C(=O)NCCOC (stereo not drawn) [Example 7, Ethyl 2-(11-{[(3,4-dichloro-5-methyl-1H-pyrrol-2-yl)carbonyl]amino}-1,5-dioxa-8-azaspiro[5.5]undec-8-yl)-4-{[(2-methoxyethyl)amino]carbonyl}-1,3-thiazole-5-carboxylate] | 0.0185
7 | CNC(=O)c1nc(N2CCC(NC(=O)c3[nH]c(C)c(Cl)c3Cl)C3(C2)OCCO3)sc1C(=O)O (stereo not drawn) [Example 13, 2-(10-{[(3,4-Dichloro-5-methyl-1H-pyrrol-2-yl)carbonyl]amino}-1,4-dioxa-7-azaspiro[4.5]dec-7-yl)-4-[(methylamino)carbonyl]-1,3-thiazole-5-carboxylic acid] | < 0.069
8 | CO/N=C1\CN(c2nc(-c3ncnn3C)c(C(=O)O)s2)CCC1NC(=O)c1[nH]c(C)c(Cl)c1Cl (stereo not drawn) [Example 25, 2-[(3E)-4-{[(3,4-Dichloro-5-methyl-1H-pyrrol-2-yl)carbonyl]amino}-3-(methoxyimino)piperidin-1-yl]-4-(1-methyl-1H-1,2,4-triazol-5-yl)-1,3-thiazole-5-carboxylic acid] | < 0.00977
9 | Cc1[nH]c(C(=O)N[C@@H]2CCN(c3ncc(C(=O)O)s3)C[C@@H]2n2cc(Cl)nn2)c(Cl)c1Cl [Example 107] | < 0.00977
10 | COC(=O)c1cnc(N2CCC(NC(=O)c3[nH]c(C)c(Cl)c3Cl)C3(C2)OCCCO3)s1 (stereo not drawn) [Example 6, Methyl 2-(11-{[(3,4-dichloro-5-methyl-1H-pyrrol-2-yl)carbonyl]amino}-1,5-dioxa-8-azaspiro[5.5]undec-8-yl)-1,3-thiazole-5-carboxylate] | 0.0791
11 | COCCNC(=O)c1nc(N2CC[C@@H](NC(=O)c3[nH]c(C)c(Cl)c3Cl)[C@@H](n3cc(CO)nn3)C2)sc1C(=O)O [Example 115] | < 0.00977
12 | COCC(COC)NC(=O)c1nc(N2CC[C@@H](NC(=O)c3[nH]c(C)c(Cl)c3Cl)[C@@H](n3cc(CC#N)nn3)C2)sc1C(=O)O [Example 111] | < 0.00977
13 | COC(=O)c1cnc(N2CCC(NC(=O)c3[nH]c(C)c(Cl)c3Cl)C3(C2)OCC(C)(C)CO3)s1 (stereo not drawn) [Example 64, Methyl 2-(11-{[(3,4-dichloro-5-methyl-1H-pyrrol-2-yl)carbonyl]amino}-3,3-dimethyl-1,5-dioxa-8-azaspiro[5.5]undec-8-yl)-1,3-thiazole-5-carboxylate] | 0.155
14 | COCCNC(=O)c1nc(N2CC[C@@H](NC(=O)c3[nH]c(C)c(Cl)c3Cl)[C@@H](N=[N+]=[N-])C2)sc1C(=O)O [Example 103] | < 0.00977
15 | COCCNC(=O)c1nc(N2CC[C@@H](NC(=O)c3[nH]c(C)c(Cl)c3Cl)[C@@H](n3cc(COC)nn3)C2)sc1C(=O)O [Example 117] | < 0.00977
16 | COCC(COC)NC(=O)c1nc(N2CC[C@@H](NC(=O)c3[nH]c(C)c(Cl)c3Cl)[C@@H](n3cc(Cl)nn3)C2)sc1C(=O)O [Example 109] | < 0.00977
17 | COCCNC(=O)c1nc(N2CCC(NC(=O)c3[nH]c(C)c(Cl)c3Cl)C3(C2)OCCO3)sc1C(=O)O (stereo not drawn) [Example 14, 2-(10-{[(3,4-Dichloro-5-methyl-1H-pyrrol-2-yl)carbonyl]amino}-1,4-dioxa-7-azaspiro[4.5]dec-7-yl)-4-{[(2-methoxyethyl)amino]carbonyl}-1,3-thiazole-5-carboxylic acid] | < 0.00977
18 | COC(=O)c1cnc(N2CCC(NC(=O)c3[nH]c(C)c(Cl)c3Cl)C(OC)(OC)C2)s1 (stereo not drawn) [Example 10, Methyl 2-(4-{[(3,4-dichloro-5-methyl-1H-pyrrol-2-yl)carbonyl]amino}-3,3-dimethoxypiperidin-1-yl)-1,3-thiazole-5-carboxylate] | 0.169
19 | Cc1[nH]c(C(=O)N[C@H]2CCN(c3ncc(C(=O)O)s3)C[C@H]2n2ccnc2)c(Cl)c1Cl (racemic) [Example 42, cis(±)2-[4-{[(3,4-Dichloro-5-methyl-1H-pyrrol-2-yl)carbonyl]amino}-3-(1H-imidazol-1-yl)piperidin-1-yl]-1,3-thiazole-5-carboxylic acid] | < 0.0756
20 | Cc1[nH]c(C(=O)N[C@@H]2CCN(c3ncc(C(=O)O)s3)C[C@@H]2n2ccnn2)c(Cl)c1Cl [Example 101, 2-[(3S,4R)-4-{[(3,4-Dichloro-5-methyl-1H-pyrrol-2-yl)carbonyl]amino}-3-(1H-1,2,3-triazol-1-yl)piperidin-1-yl]-1,3-thiazole-5-carboxylic acid] | < 0.00977
21 | COCCn1ccnc1-c1nc(N2CCC(NC(=O)c3[nH]c(C)c(Cl)c3Cl)/C(=N/OC)C2)sc1C(=O)OC (stereo not drawn) [Example 36, Methyl 2-[(3E)-4-{[(3,4-dichloro-5-methyl-1H-pyrrol-2-yl)carbonyl]amino}-3-(methoxyimino)piperidin-1-yl]-4-[1-(2-methoxyethyl)-1H-imidazol-2-yl]-1,3-thiazole-5-carboxylate] | 0.0755
22 | Cc1[nH]c(C(=O)N[C@@H]2CCN(c3nc(C(=O)NC4CC4)c(C(=O)O)s3)C[C@@H]2n2cc(Cl)nn2)c(Cl)c1Cl [Example 110] | < 0.00977
23 | CCOC(=O)c1cccc2nc(N3CC[C@H](NC(=O)c4[nH]c(C)c(Cl)c4Cl)[C@H](n4ccnc4)C3)sc12 (racemic) [Example 41, cis(±)Ethyl 2-[4-{[(3,4-dichloro-5-methyl-1H-pyrrol-2-yl)carbonyl]amino}-3-(1H-imidazol-1-yl)piperidin-1-yl]-1,3-benzothiazole-7-carboxy late] | 0.0534
24 | COC(=O)c1cnc(N2CC[C@H](NC(=O)c3[nH]c(C)c(Cl)c3Cl)[C@H](N=[N+]=[N-])C2)s1 (racemic) [Example 65, cis(±)Methyl 2-(3-azido-4-{[(3,4-dichloro-5-methyl-1H-pyrrol-2-yl)carbonyl]amino}piperidin-1-yl)-1,3-thiazole-5-carboxylate] | < 0.00977
25 | COC(=O)c1cnc(N2CC[C@H](NC(=O)c3[nH]c(C)c(Cl)c3Cl)[C@H](n3cnc(Cl)n3)C2)s1 (racemic) [Example 40, cis(±)Methyl 2-(3-(3-chloro-1H-1,2,4-triazol-1-yl)-4-{[(3,4-dichloro-5-methyl-1H-pyrrol-2-yl)carbonyl]amino}piperidin-1-yl)-1,3-thiazole-5-carboxylate] | 0.0519
26 | COCCNC(=O)c1nc(N2CCC(NC(=O)c3[nH]c(C)c(Cl)c3Cl)/C(=N/OC)C2)sc1C(=O)O (stereo not drawn) [Example 23, 2-[(3E)-4-{[(3,4-Dichloro-5-methyl-1H-pyrrol-2-yl)carbonyl]amino}-3-(methoxyimino)piperidin-1-yl]-4-{[(2-methoxyethyl)amino]carbonyl}-1,3-thiazole-5-carboxylic acid] | < 0.00977
27 | CO/N=C1\CN(c2ncc(C=O)s2)CCC1NC(=O)c1[nH]c(C)c(Cl)c1Cl (stereo not drawn) [Example 32, 3,4-Dichloro-N-[(3E)-1-(5-formyl-1,3-thiazol-2-yl)-3-(methoxyimino)piperidin-4-yl]-5-methyl-1H-pyrrole-2-carboxamide] | 0.0593
28 | CCOC(=O)c1sc(N2CCC(NC(=O)c3[nH]c(C)c(Cl)c3Cl)/C(=N/OC)C2)nc1C(=O)NCCOC (stereo not drawn) [Example 33, Ethyl 2-[(3E)-4-{[(3,4-dichloro-5-methyl-1H-pyrrol-2-yl)carbonyl]amino}-3-(methoxyimino)piperidin-1-yl]-4-{[(2-methoxyethyl)amino]carbonyl}-1,3-thiazole-5-carboxylate] | 0.0369
29 | COCC(COC)NC(=O)c1nc(N2CC[C@@H](NC(=O)c3[nH]c(C)c(Cl)c3Cl)[C@@H](n3cc(Br)nn3)C2)sc1C(=O)O [Example 113] | < 0.00977
30 | Cc1[nH]c(C(=O)N[C@H]2CCN(c3ncc(C(=O)O)s3)C[C@H]2n2cnc(Cl)n2)c(Cl)c1Cl (racemic) [Example 45, cis(±)2-(3-(3-Chloro-1H-1,2,4-triazol-1-yl)-4-{[(3,4-dichloro-5-methyl-1H-pyrrol-2-yl)carbonyl]amino}piperidin-1-yl)-1,3-thiazole-5-carboxylic acid] | < 0.00977
